Inhibition data for two molecules are collected here from patent publication EP4467141A1, “PYRAZOLO-QUINOLINES AS SELECTIVE INHIBITORS OF GENOTOXIC STRESS-INDUCED IKK/NF- KB PATHWAYS FOR CANCER THERAPY” (Max-Delbrück-Centrum für Molekulare Medizin in der …, priority 2023, dated 2024).

Common to all, as to assay: Kinase panel study
What all share (type): biochemical
Conditions in all cases: read-out: Percentage of inhibition; for inhibition at 1 µM: 1000nM; for inhibition at 10 µM: 10000nM

One assay deals with T1, ROCK1 (Homo sapiens, UniProt Q13464).
T1 construct: purchased Thermo Fisher Scientific
Summed up:
(§1)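 In vitro, kinase panel; ZLyte or Adapta SOP; single-concentration testing (1 or 10 µM); output = % inhibition, plus IC50 in panel.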

The next assay has as its target T2, PIM3 (Homo sapiens, UniProt Q86V86).
T2 construct: purchased Thermo Fisher Scientific
Summed up: as §1

In the next assay the target is T3, AMPK (A2/B1/G3) (Homo sapiens, UniProt P54646).
T3 construct: purchased Thermo Fisher Scientific
Summed up:
as §1

A further assay concerns the target T4, CSK (Homo sapiens, UniProt P41240).
T4 construct: purchased Thermo Fisher Scientific
Summed up: as §1

The target of the next assay is T5, CDC42 BPB (MRCKB) (Homo sapiens, UniProt Q9Y5S2).
T5 construct: purchased Thermo Fisher Scientific
Summed up:
as §1

The target of the next assay is T6, EPHB4 (Homo sapiens, UniProt P54760).
T6 construct: purchased Thermo Fisher Scientific
T6 sequence (P54760 16-987): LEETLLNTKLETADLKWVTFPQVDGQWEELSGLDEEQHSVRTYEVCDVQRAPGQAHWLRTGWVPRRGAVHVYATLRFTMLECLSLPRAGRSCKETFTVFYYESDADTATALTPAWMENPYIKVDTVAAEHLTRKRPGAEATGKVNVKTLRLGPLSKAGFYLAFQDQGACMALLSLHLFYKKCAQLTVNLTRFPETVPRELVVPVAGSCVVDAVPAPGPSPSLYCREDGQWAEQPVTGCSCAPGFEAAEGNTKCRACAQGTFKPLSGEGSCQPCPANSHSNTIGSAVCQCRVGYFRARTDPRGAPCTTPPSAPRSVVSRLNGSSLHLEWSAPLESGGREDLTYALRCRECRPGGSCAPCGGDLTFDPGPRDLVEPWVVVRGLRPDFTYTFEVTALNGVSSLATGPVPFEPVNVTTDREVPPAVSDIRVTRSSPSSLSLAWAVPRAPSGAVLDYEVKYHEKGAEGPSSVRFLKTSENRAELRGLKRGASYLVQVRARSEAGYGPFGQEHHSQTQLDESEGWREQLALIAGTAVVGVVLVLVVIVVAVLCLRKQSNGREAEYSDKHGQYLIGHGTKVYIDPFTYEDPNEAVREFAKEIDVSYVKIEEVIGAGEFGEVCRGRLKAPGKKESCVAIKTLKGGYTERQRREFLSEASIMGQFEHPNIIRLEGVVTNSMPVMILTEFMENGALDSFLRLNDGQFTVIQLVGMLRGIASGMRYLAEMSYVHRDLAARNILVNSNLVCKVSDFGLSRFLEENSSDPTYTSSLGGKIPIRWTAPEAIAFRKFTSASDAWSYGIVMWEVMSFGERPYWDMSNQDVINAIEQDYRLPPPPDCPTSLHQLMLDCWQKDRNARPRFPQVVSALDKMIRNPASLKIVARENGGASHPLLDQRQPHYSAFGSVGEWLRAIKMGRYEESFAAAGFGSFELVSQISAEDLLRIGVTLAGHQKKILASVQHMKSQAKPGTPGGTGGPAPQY
Summed up: as §1

The target in a further assay is T7, CSNK1A1L (Homo sapiens, UniProt Q8N752).
T7 construct: purchased Thermo Fisher Scientific
T7 sequence (Q8N752 1-337): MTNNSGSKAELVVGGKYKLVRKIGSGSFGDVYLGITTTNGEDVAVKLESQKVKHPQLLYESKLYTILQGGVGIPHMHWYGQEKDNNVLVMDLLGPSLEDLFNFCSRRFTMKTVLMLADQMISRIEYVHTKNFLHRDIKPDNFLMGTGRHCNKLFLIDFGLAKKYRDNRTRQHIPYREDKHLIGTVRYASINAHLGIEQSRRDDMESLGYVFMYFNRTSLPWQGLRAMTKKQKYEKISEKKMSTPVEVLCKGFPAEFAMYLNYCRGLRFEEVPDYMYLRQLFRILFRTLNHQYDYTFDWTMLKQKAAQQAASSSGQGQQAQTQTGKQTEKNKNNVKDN
Summed up:
as §1

For another assay, the target named is T8, CAMK1D (CaMKI delta) (Homo sapiens, UniProt Q8IU85).
T8 construct: purchased Thermo Fisher Scientific
Summed up:
as §1

A further assay addresses T9, NTRK3 (TRKC) (Homo sapiens, UniProt Q16288).
T9 construct: purchased Thermo Fisher Scientific
Summed up: as §1

A further assay deals with T10, ABL1 (Homo sapiens, UniProt P00519).
T10 construct: purchased Thermo Fisher Scientific
Summed up:
as §1

A further assay concerns the target T11, FES (FPS) (Homo sapiens, UniProt P07332).
T11 construct: purchased Thermo Fisher Scientific
Summed up:
as §1

For a further assay, the target named is T12, CDK17/cyclin Y (Homo sapiens, UniProt Q00537).
T12 construct: purchased Thermo Fisher Scientific
Summed up:
as §1

T11 sequence (P07332 whole entry): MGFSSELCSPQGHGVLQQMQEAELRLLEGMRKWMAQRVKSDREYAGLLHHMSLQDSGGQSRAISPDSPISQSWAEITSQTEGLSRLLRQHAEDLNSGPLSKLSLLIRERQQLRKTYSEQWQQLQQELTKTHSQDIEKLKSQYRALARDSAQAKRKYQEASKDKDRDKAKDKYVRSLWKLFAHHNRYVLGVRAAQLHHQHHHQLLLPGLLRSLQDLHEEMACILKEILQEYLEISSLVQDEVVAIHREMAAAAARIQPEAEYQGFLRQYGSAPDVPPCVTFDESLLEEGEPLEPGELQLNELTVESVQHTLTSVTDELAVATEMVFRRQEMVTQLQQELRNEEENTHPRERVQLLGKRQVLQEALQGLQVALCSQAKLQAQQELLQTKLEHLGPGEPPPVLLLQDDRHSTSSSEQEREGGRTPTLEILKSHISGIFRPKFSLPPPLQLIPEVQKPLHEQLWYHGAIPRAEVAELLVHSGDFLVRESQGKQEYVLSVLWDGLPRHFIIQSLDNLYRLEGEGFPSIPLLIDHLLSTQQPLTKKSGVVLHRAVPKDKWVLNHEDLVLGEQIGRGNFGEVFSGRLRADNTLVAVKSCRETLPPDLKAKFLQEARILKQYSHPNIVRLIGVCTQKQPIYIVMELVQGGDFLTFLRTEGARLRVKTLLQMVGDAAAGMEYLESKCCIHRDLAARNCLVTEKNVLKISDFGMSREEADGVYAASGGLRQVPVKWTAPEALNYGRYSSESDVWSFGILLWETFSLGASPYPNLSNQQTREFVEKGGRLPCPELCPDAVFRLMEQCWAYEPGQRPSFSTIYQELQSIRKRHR
T4 sequence (P41240 whole entry): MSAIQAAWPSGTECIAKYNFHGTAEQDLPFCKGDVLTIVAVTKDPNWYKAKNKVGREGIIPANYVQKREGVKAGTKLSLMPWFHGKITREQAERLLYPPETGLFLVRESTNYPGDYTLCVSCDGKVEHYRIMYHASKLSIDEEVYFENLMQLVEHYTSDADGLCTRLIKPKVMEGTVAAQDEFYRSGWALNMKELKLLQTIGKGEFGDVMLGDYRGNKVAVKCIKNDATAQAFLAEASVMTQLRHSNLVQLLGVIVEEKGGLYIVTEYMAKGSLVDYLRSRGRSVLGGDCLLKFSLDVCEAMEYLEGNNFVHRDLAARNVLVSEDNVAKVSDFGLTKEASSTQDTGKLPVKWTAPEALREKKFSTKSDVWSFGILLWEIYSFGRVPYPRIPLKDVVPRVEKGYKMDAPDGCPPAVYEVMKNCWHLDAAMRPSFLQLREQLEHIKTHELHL
T5 sequence (Q9Y5S2 whole entry): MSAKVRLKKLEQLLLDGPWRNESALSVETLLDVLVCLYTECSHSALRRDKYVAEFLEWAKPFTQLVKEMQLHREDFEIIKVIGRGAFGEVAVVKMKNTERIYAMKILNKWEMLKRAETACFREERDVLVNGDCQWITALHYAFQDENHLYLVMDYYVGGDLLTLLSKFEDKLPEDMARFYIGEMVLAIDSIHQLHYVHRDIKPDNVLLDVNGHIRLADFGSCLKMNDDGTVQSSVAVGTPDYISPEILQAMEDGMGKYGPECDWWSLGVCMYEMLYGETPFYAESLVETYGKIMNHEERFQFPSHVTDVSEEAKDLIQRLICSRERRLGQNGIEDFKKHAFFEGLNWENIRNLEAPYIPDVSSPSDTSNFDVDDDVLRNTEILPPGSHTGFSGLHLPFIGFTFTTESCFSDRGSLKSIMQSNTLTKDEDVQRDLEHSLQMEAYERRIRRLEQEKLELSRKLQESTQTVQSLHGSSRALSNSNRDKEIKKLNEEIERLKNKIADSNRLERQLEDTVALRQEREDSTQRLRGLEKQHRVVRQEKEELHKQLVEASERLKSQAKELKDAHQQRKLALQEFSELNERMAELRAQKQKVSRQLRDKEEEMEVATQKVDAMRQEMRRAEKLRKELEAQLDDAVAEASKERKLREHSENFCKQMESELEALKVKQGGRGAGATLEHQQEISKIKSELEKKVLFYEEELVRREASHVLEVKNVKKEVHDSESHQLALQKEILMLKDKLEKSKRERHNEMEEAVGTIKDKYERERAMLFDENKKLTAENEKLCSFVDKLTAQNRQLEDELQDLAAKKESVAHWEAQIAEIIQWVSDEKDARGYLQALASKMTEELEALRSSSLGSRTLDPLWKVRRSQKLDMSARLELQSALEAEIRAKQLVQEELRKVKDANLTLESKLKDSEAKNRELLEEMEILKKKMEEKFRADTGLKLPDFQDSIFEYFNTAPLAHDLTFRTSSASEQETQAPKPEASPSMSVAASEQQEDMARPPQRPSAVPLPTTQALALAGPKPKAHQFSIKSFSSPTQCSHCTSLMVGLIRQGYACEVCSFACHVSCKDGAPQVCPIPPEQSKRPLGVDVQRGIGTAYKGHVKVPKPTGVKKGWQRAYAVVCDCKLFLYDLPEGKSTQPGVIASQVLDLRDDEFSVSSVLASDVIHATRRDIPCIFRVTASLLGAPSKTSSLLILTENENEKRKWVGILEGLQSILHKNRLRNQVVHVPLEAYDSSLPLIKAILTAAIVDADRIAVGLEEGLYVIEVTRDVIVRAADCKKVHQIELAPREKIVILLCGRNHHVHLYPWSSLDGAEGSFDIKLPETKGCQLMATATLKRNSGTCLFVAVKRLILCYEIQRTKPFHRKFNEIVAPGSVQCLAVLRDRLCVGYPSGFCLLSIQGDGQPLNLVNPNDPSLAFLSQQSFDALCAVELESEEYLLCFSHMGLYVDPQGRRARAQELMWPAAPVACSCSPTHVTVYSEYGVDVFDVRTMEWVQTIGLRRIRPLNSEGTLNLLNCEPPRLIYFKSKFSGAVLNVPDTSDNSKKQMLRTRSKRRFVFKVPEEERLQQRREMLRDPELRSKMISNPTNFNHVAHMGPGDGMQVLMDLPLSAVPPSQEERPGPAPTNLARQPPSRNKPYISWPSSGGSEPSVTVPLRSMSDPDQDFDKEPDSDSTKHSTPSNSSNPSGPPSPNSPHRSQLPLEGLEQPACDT
T3 sequence (P54646 whole entry): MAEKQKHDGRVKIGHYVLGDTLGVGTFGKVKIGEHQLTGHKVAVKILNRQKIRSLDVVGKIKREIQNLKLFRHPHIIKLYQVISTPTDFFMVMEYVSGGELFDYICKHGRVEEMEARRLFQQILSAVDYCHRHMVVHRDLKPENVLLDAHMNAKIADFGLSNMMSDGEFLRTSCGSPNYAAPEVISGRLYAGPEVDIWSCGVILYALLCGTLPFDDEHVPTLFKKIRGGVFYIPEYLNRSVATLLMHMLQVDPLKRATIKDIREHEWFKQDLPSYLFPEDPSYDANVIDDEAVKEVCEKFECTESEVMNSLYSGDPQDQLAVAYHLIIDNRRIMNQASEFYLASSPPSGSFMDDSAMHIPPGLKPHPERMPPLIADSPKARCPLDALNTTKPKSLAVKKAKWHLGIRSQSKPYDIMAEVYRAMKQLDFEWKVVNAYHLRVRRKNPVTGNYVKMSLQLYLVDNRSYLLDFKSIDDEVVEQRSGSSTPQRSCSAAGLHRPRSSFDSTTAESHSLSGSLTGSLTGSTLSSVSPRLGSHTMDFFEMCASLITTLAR
T3 sequence (Q9Y478 whole entry partner): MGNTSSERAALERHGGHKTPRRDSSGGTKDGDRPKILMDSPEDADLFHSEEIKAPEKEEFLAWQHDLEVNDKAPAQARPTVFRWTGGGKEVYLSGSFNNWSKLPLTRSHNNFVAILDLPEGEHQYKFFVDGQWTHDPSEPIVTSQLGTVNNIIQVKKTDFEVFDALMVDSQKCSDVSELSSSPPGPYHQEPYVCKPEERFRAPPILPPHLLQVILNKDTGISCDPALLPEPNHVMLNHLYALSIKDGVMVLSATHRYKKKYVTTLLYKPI
T3 sequence (Q9UGI9 whole entry partner): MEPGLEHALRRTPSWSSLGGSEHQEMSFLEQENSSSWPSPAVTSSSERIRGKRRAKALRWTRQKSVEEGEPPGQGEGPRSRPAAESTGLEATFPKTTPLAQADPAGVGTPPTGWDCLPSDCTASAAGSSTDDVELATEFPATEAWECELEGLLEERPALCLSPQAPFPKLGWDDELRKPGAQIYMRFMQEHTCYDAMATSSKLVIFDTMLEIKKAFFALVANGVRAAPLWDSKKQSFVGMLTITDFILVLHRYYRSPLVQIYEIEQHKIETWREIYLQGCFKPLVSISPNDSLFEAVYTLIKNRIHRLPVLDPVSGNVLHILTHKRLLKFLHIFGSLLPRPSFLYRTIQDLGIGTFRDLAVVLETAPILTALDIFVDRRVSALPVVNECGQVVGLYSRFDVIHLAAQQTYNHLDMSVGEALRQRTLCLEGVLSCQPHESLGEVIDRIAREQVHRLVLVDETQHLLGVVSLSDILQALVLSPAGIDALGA

As a reminder, the inhibition is the drop in the measured response relative to a control, in per cent. Regarding `COc1ccc2c(c1OC)c(=O)n1c3ccc(O)cc3c3ccnc2c31` [MW01, 5-Hydroxy-10,11-dimethoxy-9H-benzo[c]indolo[3,2,1-ij][1,5]naphthyridin-9-one], the inhibition at 1 µM on ROCK1 is 0%; at PIM3, 22%; at AMPK (A2/B1/G3) it was -2%; on CSK, 11%; at CDC42 BPB (MRCKB), 0%; at EPHB4, 5%. For the same molecule, the inhibition at 1 µM stood at 1% at CSNK1A1L; 5% at CAMK1D (CaMKI delta); 42% at NTRK3 (TRKC); 15% on ABL1; 0% on FES (FPS); 3% on CDK17/cyclin Y. Further, the inhibition at 10 µM was found to be 13% on ROCK1; 42% on PIM3; 12% at AMPK (A2/B1/G3); 18% on CSK; 5% on CDC42 BPB (MRCKB); 7% at EPHB4. Moreover, the inhibition at 10 µM at CSNK1A1L amounted to 11%; on CAMK1D (CaMKI delta), 9%; on NTRK3 (TRKC), 66%; on ABL1, 27%; on FES (FPS), 15%; on CDK17/cyclin Y, 9%.

For `COc1ccc2cc3c(N)nn(C(=O)c4cccc(N(C)C)c4)c3nc2c1` [MW05, (3-Amino-7-methoxypyrazolo[3,4-b]quinolin-1-yl)-[3-(dimethylamino)phenyl]methanone], the inhibition at 1 µM on ROCK1 is -4%; at PIM3, 11%; on AMPK (A2/B1/G3), 0%; on CSK it was 9%; at CDC42 BPB (MRCKB), 5%; on EPHB4, -3%. The inhibition at 1 µM at CSNK1A1L is 1%; at CAMK1D (CaMKI delta), 1%; on NTRK3 (TRKC) it was 10%; on ABL1, 4%; at FES (FPS) it was 1%; at CDK17/cyclin Y, 8%. The inhibition at 10 µM at ROCK1 was -5%; at PIM3 it was 2%; at AMPK (A2/B1/G3) it was -3%; on CSK it was 13%; at CDC42 BPB (MRCKB), -6%; at EPHB4, 2%. The inhibition at 10 µM at CSNK1A1L was 1%; on CAMK1D (CaMKI delta), -1%; on NTRK3 (TRKC), 11%; at ABL1 it was 6%; at FES (FPS), -1%; on CDK17/cyclin Y, 21%.
